# Reference: US9808003B2, “Herbicidally active 2-(substituted-phenyl)-cyclopentane-1,3-dione compounds and derivatives thereof” (Syngenta Limited, priority 2013, dated 2017)
# Experiments:
# Test in all cases: Test 1A glasshouse assay, post-emergence herbicidal activity
# Assay type in all cases: in vivo
# [1] = test system: Alopecurus myosuroides (ALOMY); conditions: Alopecurus myosuroides, 312 h, application rate 250 g/ha, 13 days after application, visual (100%=total damage; 0%=no damage), read-out: Post-emergence Herbicidal Activity (% Phytotoxicity) ALOMY
# Procedure, shortened: (§1)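 Herbicidal effect is scored by eye as % phytotoxicity (0–100%) 13 days after treatment of 8-day-old glasshouse-grown plants. The spray solution contains the technical active ingredient in acetone/water with 0.5% Tween 20.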
# Avena fatua (AVEFA) = conditions: Avena fatua, 312 h, application rate 250 g/ha, 13 days after application, visual (100%=total damage; 0%=no damage), read-out: Post-emergence Herbicidal Activity (% Phytotoxicity) AVEFA
# Procedure, shortened: as §1
# [2] = test system: Echinochloa crus-galli (ECHCG); conditions: Echinochloa crus-galli, 312 h, application rate 250 g/ha, 13 days after application, visual (100%=total damage; 0%=no damage), read-out: Post-emergence Herbicidal Activity (% Phytotoxicity) ECHCG
# Procedure, shortened: as §1
# Lolium perenne (LOLPE) = conditions: Lolium perenne, 312 h, application rate 250 g/ha, 13 days after application, visual (100%=total damage; 0%=no damage), read-out: Post-emergence Herbicidal Activity (% Phytotoxicity) LOLPE
# Procedure, shortened: as §1
SMILES,pest or weed control at 250 g/ha [1] [%],pest or weed control at 250 g/ha (Avena fatua (AVEFA)) [%],pest or weed control at 250 g/ha [2] [%],pest or weed control at 250 g/ha (Lolium perenne (LOLPE)) [%]
Cc1cc(-n2ccnn2)cc(C)c1C1C(=O)CC(CCNC(=O)c2ccccn2)C1=O (stereo not drawn) [Compound A171],0,10,60,10
Cc1cc(C)c(C2C(=O)CC(CCNC(=O)c3sc(C(F)(F)F)nc3C(F)(F)F)C2=O)c(C)c1 (stereo not drawn) [Compound A172],90,90,100,100
Cc1cc(C)c(C2C(=O)CC(CCNC(=O)c3cc(C(F)(F)F)nn3C)C2=O)c(C)c1 (stereo not drawn) [Compound A173],100,100,100,100
COCc1nc(C2CC2)c(C(=O)NCCC2CC(=O)C(c3c(C)cc(C)cc3C)C2=O)s1 (stereo not drawn) [Compound A174],90,100,90,100
Cc1cc(C)c(C2C(=O)CC(CCNC(=O)c3nn(C)c(C)c3Cl)C2=O)c(C)c1 (stereo not drawn) [Compound A177],100,90,100,90
Cc1cc(C)c(C2C(=O)CC(CCNC(=O)c3oc(C)nc3C)C2=O)c(C)c1 (stereo not drawn) [Compound A178],70,90,80,100
Cc1cc(C)c(C2C(=O)CC(CCNC(=O)c3c(C)noc3C)C2=O)c(C)c1 (stereo not drawn) [Compound A179],70,100,80,70
Cc1cc(C)c(C2C(=O)CC(CCNC(=O)c3snnc3C)C2=O)c(C)c1 (stereo not drawn) [Compound A180],70,80,90,80
Cc1cc(C)c(C2C(=O)CC(CCNC(=O)c3ocnc3C)C2=O)c(C)c1 (stereo not drawn) [Compound A181],80,100,80,90
Cc1cc(C)c(C2C(=O)CC(CCNC(=O)c3nc(C)sc3C)C2=O)c(C)c1 (stereo not drawn) [Compound A182],80,90,90,80
Cc1cc(C)c(C2C(=O)CC(CCNC(=O)c3sc(C)nc3C(F)F)C2=O)c(C)c1 (stereo not drawn) [Compound A183],60,60,90,90
Cc1cc(-c2ccccc2Cl)cc(C)c1C1C(=O)CC(CCNC(=O)c2ccccn2)C1=O (stereo not drawn) [Compound A184],10,20,90,60
Cc1cc(C)c(C2C(=O)CC(CCNC(=O)c3ncc(Br)cc3F)C2=O)c(C)c1 (stereo not drawn) [Compound A185],90,100,100,100
Cc1cc(C)c(C2C(=O)CC(CCNC(=O)c3ccc(F)c(Br)n3)C2=O)c(C)c1 (stereo not drawn) [Compound A186],100,90,100,100
Cc1cc(C)c(C2C(=O)CC(CCNC(=O)c3ncc(F)cc3Br)C2=O)c(C)c1 (stereo not drawn) [Compound A187],90,90,100,100
Cc1cc(C)c(C2C(=O)CC(CCNC(=O)c3ccc(OC(F)F)cn3)C2=O)c(C)c1 (stereo not drawn) [Compound A188],100,100,100,100
Cc1cc(C)c(C2C(=O)CC(CCNC(=O)c3ncc(Cl)cc3F)C2=O)c(C)c1 (stereo not drawn) [Compound A189],100,100,100,100
Cc1cc(C)c(C2C(=O)CC(CCNC(=O)c3ccc(C=C(F)F)cn3)C2=O)c(C)c1 (stereo not drawn) [Compound A190],80,90,90,90

SMILES,pest or weed control at 250 g/ha [1] [%],pest or weed control at 250 g/ha (Avena fatua (AVEFA)) [%],pest or weed control at 250 g/ha [2] [%],pest or weed control at 250 g/ha (Lolium perenne (LOLPE)) [%]
Cc1cc(-n2cc(Cl)cn2)cc(C)c1C1C(=O)CC(CCNC(=O)c2nc(Br)ccc2F)C1=O (stereo not drawn) [Compound A191],100,100,100,90
CC#Cc1ccc(C(=O)NCCC2CC(=O)C(c3c(C)cc(C)cc3C)C2=O)nc1 (stereo not drawn) [Compound A192],80,90,100,100
Cc1cc(C)c(C2C(=O)CC(CCNC(=O)c3nc(Br)ccc3F)C2=O)c(C)c1 (stereo not drawn) [Compound A193],90,90,90,100
Cc1cc(C)c(C2C(=O)CC(CCNC(=O)c3nccnc3Cl)C2=O)c(C)c1 (stereo not drawn) [Compound A194],80,90,100,90
Cc1cc(C)c(C2C(=O)CC(CCNC(=O)c3cnc(Cl)cn3)C2=O)c(C)c1 (stereo not drawn) [Compound A195],30,30,80,60
Cc1cc(C)c(C2C(=O)CC(CCNC(=O)c3cncc(Cl)n3)C2=O)c(C)c1 (stereo not drawn) [Compound A196],80,90,100,90
Cc1cc(Br)cc(Br)c1C1C(=O)CC(CCNC(=O)c2ccccn2)C1=O (stereo not drawn) [Compound A197],90,70,100,60
Cc1cc(-c2cc(Cl)cc(Cl)c2)cc(C)c1C1C(=O)CC(CCNC(=O)c2ccccn2)C1=O (stereo not drawn) [Compound A203],80,100,100,80
Cc1ccc(-c2cc(C)c(C3C(=O)CC(CCNC(=O)c4ccccn4)C3=O)c(C)c2)cc1 (stereo not drawn) [Compound A204],90,90,100,100
Cc1cc(C)c(C2C(=O)CC(CCNC(=O)c3snc(Cl)c3Cl)C2=O)c(C)c1 (stereo not drawn) [Compound A212],30,50,70,70
Cc1cc(C)c(C2C(=O)CC(CCNC(=O)c3sc(Cl)nc3C(F)(F)F)C2=O)c(C)c1 (stereo not drawn) [Compound A213],10,10,50,60
COC(=O)OC(C)OC1=C(c2c(C)cc(C)cc2C)C(=O)C(CCNC(=O)c2ccc(Br)cn2)C1 (stereo not drawn) [Compound P3],90,100,100,100
CCSC(=O)OC1=C(c2c(C)cc(C)cc2C)C(=O)CC1CCNC(=O)c1ccc(Br)cn1 (stereo not drawn) [Compound P10],100,100,100,100
CCOC(=O)OC1=C(c2c(C)cc(C)cc2C)C(=O)C(CCNC(=O)c2ccc(Br)cn2)C1 (stereo not drawn) [Compound P11],100,100,100,100
CCCCC(=O)OC1=C(c2c(C)cc(C)cc2C)C(=O)C(CCNC(=O)c2ccc(Br)cn2)C1 (stereo not drawn) [Compound P12],100,100,100,100
Cc1cc(C)c(C2=C(OC(=O)C(C)(C)C)CC(CCNC(=O)c3ccc(Br)cn3)C2=O)c(C)c1 (stereo not drawn) [Compound P13],100,100,100,100
Cc1cc(-n2cc(Cl)cn2)cc(C)c1C1=C(OC(=O)c2ccc(F)cc2)CC(CCNC(=O)c2ccccn2)C1=O (stereo not drawn) [Compound P14],100,100,100,100
CCCCS(=O)(=O)OC1=C(c2c(C)cc(-n3cc(Cl)cn3)cc2C)C(=O)C(CCNC(=O)c2ccccn2)C1 (stereo not drawn) [Compound P15],100,100,100,100
